This is an account of results in PMC5152921, “Evolutionary and Functional Diversification of the Vitamin D Receptor-Lithocholic Acid Partnership” (PLoS ONE, 2016).

What all share (assay): Mammalian 2-hybrid assay (VDR-coregulator interaction, HepG2)
Common to all, as to type: cell-based
Common to all, as to conditions: 100 μM LCA

One assay has as its target T1, Bichir VDR (Polypterus senegalus, UniProt A0A088GJ14).
T1 sequence (A0A088GJ14 1-421): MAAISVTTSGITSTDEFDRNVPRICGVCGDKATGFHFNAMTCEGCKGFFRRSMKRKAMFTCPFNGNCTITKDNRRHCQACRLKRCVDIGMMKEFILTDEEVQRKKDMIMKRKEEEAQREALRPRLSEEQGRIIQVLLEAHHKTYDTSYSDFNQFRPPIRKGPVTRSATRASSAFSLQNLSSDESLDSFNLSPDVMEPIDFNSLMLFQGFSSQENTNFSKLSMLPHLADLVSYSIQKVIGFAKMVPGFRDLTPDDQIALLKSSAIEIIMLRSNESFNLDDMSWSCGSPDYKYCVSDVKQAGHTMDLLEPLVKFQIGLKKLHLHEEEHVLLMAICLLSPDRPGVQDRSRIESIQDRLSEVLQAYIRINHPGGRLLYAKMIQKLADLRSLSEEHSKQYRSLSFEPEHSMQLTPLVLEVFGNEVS
T1 sequence (P19793 1-462 partner): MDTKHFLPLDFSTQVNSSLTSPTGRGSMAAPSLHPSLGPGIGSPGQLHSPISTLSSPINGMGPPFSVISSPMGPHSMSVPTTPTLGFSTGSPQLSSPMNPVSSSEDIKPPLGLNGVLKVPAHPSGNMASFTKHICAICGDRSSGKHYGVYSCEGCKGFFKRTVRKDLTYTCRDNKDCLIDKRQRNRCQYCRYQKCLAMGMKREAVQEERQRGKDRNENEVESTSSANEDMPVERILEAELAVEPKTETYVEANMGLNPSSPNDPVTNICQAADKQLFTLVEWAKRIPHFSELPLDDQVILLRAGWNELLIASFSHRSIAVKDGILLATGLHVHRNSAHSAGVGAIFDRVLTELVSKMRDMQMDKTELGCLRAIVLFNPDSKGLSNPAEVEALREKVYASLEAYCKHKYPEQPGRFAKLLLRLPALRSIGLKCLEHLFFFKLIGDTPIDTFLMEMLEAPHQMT
The source says: (§1) Prey constructs included full-length VDRs fused to the herpes simplex VP16 activation domain (pVP16-VDR). Bait constructs consisted of either full-length wild-type human RXR (pM-RXRWT), a truncated human RXR mutant (pM-RXRAF2), or the defined NR box of each member of the SRC/p160 family (pM-SRC1_241-386, pM-GRIP1_479-767, or pM-ACTR392-1005) fused to the yeast Gal4 DNA-binding domain. Reporters included the Gal4 luciferase reporter (5xGal4-TATA-Luc) and pRL-CMV as an internal luciferase control.
(§2) HepG2 cells were seeded into 96-well tissue culture plates as described above and transfected with Lipofectamine 2000 the following day. Each well received 33.6 ng pVP16-VDR, 33.6 ng pM-coregulator (where indicated), 126.6 ng 5XGal4-TATA-Luc, and 3 ng pRL-CMV. […] Positive controls were treated with 1,25D3 and vehicle controls were treated with ethanol. Luciferase activity was measured 24 hours post-exposure using the Dual-Glo Luciferase Assay System described above. Raw luciferase data were normalized to the pRL-CMV luciferase control. VDR-coregulator response was normalized to the pVP16-VDR in the absence of bait constructs. Results were analyzed using a two-way ANOVA followed by Bonferroni’s multiple comparisons test in Prism (GraphPad Inc, San Diego, CA). All experiments were replicated 3 times and conducted as groups of 4 replicate wells.

A further assay has as its target T2, Lamprey VDR (Petromyzon marinus, UniProt Q7ZZY9).
T2 sequence (Q7ZZY9 1-406): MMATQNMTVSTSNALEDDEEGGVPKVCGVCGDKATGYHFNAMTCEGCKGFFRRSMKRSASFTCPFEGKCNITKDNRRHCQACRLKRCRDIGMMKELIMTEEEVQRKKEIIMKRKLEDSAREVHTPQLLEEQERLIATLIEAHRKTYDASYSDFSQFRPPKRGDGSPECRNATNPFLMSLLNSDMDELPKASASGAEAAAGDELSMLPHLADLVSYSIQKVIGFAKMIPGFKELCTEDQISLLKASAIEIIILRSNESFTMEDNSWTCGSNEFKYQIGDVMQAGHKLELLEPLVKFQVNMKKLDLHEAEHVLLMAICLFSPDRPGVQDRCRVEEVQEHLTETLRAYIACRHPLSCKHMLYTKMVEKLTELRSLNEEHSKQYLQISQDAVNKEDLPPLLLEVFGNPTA
T2 sequence (P19793 1-462 partner): T1 sequence (P19793 1-462 partner)
Excerpt: as §1, §2

A further assay concerns the target T3, Skate VDR (Leucoraja erinacea, UniProt A0A088GDQ7).
T3 sequence (A0A088GDQ7 1-434): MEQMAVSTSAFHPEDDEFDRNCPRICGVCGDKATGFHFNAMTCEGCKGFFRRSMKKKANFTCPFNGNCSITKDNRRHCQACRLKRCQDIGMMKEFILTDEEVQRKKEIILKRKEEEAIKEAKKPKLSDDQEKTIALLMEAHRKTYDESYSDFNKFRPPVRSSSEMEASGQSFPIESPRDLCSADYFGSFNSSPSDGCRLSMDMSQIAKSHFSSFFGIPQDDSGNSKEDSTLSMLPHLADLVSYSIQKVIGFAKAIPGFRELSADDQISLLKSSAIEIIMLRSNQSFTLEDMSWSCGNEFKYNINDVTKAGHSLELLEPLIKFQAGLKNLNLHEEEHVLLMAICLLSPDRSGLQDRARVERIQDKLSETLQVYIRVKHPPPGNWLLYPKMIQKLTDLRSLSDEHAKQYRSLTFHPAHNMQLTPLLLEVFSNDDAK
T3 sequence (P19793 1-462 partner): T1 sequence (P19793 1-462 partner)
Excerpt: as §1, §2

The next assay addresses T4, Zebrafish VDRα (Danio rerio, UniProt Q9PTN2).
T4 construct: 89.7 ng/well of full-length pSG5-VDR was co-transfected; expressed in transfected cells; host or cells: HepG2
T4 sequence (Q9PTN2 1-453): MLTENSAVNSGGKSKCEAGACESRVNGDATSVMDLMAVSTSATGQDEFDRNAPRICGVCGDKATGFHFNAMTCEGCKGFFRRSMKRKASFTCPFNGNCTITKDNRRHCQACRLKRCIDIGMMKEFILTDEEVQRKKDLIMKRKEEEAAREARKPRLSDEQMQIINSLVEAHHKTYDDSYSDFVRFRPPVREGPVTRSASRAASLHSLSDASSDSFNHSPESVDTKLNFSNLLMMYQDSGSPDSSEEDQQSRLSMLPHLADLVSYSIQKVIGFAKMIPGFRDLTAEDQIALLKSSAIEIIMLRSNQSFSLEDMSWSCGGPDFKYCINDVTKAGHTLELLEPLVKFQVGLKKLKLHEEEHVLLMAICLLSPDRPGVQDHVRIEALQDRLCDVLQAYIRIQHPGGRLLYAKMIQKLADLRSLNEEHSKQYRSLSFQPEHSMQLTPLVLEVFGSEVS
Excerpt: as §1, §2

Where [1] appears, read: any of the SRC/p160 coactivators.
[2] abbreviates: bait human RXRWT, presence and absence of SRC1.

`C[C@H](CCC(=O)O)[C@H]1CC[C@H]2[C@@H]3CC[C@@H]4C[C@H](O)CC[C@]4(C)[C@H]3CC[C@]12C` [LCA, 5β-cholanic acid-3α-ol]: the VDR-SRC/p160 coactivator interaction entry at Bichir VDR (setting [1]), at Lamprey VDR (setting [1]) and on Skate VDR (setting [1]) was “No protein-protein interaction was observed” each time. The “VDR-RXRWT interaction (heterodimerization)” value at Bichir VDR (setting [2]) is “not observed”; at Lamprey VDR (setting [2]), “not observed”; on Skate VDR (setting [2]), “not observed”; at Zebrafish VDRα (bait human RXRWT), “Robust and significant VDR-RXRWT interactions”. For the same molecule, the VDR-SRC1 interaction entry is on record as “successfully recruited SRC1” on Zebrafish VDRα (absence of cotransfected RXRWT) and “strong VDR-SRC1 interactions” on Zebrafish VDRα (cotransfection of RXRWT).
